Source: patent US12582632B2, “Inhibition of neurological injuries due to infections via administration of Butanetap and analogs thereof” (priority 2021, dated 2026)

How the values were obtained:
[1] = Plasma and brain levels in mice by dose; type: in vivo
Description: (§1) The doses are provided in mg/kg; mg dose for a 70 kg human; plasma levels in mice and humans (ng/ml); plasma levels in humans (nM); brain levels in mice and humans (ng/gram); oral human efficacious and safe dose (mg/day); IP/P human efficacious and safe dose (mg/day); and IV human efficacious and safe dose (mg/day).

[2] = tested on: APP, Tau, αSYN and inflammatory markers in CSF; test: MCI subjects proof of mechanism study, CSF markers before and after 10 days; type: in vivo, human
Description: Three Phase I clinical studies have established butanetap's safety. […] Therefore, we conclude that a much lower single daily butanetap dose would be effective in the proposed study.

[3] = tested on: APP in SH-SY-5Y human neuroblastoma cells; test: APP in vitro, Western blot; type: cell-based; settings: 0, 0.1, 1, 5 and 10 μM, FIG. 1
[4] = tested on: Tau in transgenic neo-natal human Tau mice cells; test: Tau in vitro; type: cell-based; settings: cells treated for 4 days, antibodies against Tau and phospho-Tau, FIG. 3
Description: The cells were treated for 4 days with butanetap harvested, solubilized, and tested with antibodies against Tau and phospho-Tau. • B. FIG. 4, Tau in vivo. […] After 6 weeks, mice were killed and the total and insoluble (aggregated) tau was measured. […] Precipitated tau corresponds to tangles in the brain.

αSYN = type: in vivo, mice; settings: 50 and 65 mg/kg for 21 days, FIG. 6
[5] = tested on: immortalized Mouse Microglia (SIM-A9); test: Gingipain cytotoxicity on microglia, AlamarBlue viability; type: cell-based; settings: 48 hours, between 1 and 10 nM
Description: Immortalized Mouse Astrocytes—SV40T (IMA2.1), immortalized Mouse Microglia (SIM-A9) and immortalized neuroblastoma (SH-SY5Y) cells were infected for 48 hours with gingipains HRgpA and RgpB (arginine gingipains), and Kgp (lysine-specific cysteine proteinase—Lys-gingipain, KGP). After 48 hours the cells were assessed for viability with the AlamarBlue assay and the percentage of dead or alive cells versus control was plotted. […] As expected, since neither are dying, […]. […] Therefore, we expect the efficacious buntanetap dose to fight P. gingivalis infection to be the same as to treat Alzheimer's and Parkinson's disease has no impact on the microglia or neuroblastoma survival in the presence of gingipains.

[6] = tested on: neuroblastoma cells (SH-SY5Y); test: Gingipain-induced cell aggregation; type: cell-based; settings: 24 hours RgpB (10 ug/ml), Kgp (10 ug/ml), or both, FIG. 11
[7] = tested on: Ts65dn mouse model of Down syndrome (DS); test: Ts65dn mouse model of Down syndrome; type: in vivo; settings: Ts65dn mice
Description: Butanetap's efficacy in treating neurodegeneration in animal models: Restored memory and learning in an APP/PS1 transgenic (tg) mouse model of AD; Restored memory and learning in a Ts65dn mouse model of Down syndrome (DS) [W. Mobley, UCSD, submitted 2020]; Preserved the retina in acute glaucoma [J Sundstrom; Hershey Medical School]; Restored colonic motility in a human SNCAA53T tg mouse model of PD (Kuo et. al., Am J Neurodegener Dis 2019; 8(1):1-15 www.AJND.us/ISSN:216 591X/AJND0086080: Translational inhibition of α-synuclein by Butanetap (Posiphen) normalizes distal colon motility in transgenic Parkinson mice); Preserved memory and learning in traumatic brain injury rats (M-F Chesselet, submitted 2020).

[8] = tested on: fully differentiated healthy resting nerve cells; test: Translation of neurotoxic aggregating proteins in differentiated nerve cells; type: cell-based
Description: Therefore, the original data concerning the effects of butanetap working under all conditions is wrong. (See, e.g., Lahiri, et al., “The Experimental Alzheimer's Disease Drug butanetap [(+)-Phenserine] Lowers Amyloid-β Peptide Levels in Cell Culture and Mice”, J. Pharmacol. Ther. 320:386-396, 2007 (hereby incorporated by reference)). It only works in stressed cells, dividing cells and sick cells, e.g., those cells that have high levels of iron.

[9] = cited from earlier work
[10] = tested on: human SNCAA53T tg mouse model of PD; settings: SNCAA53T tg mice; cited from earlier work
[11] = Plasma and brain levels in humans, calculated and extrapolated from mice data
Description: as §1

[12] = tested on: neurotoxic aggregating proteins; test: Neurotoxic aggregating proteins in cerebral cortex of transgenic AD and PD animals
[13] = dose 0.014 mg/kg, 1.0 mg for 70 kg
[14] = dose 0.07 mg/kg, 4.9 mg for 70 kg
[15] = dose 0.143 mg/kg, 10.0 mg for 70 kg
[16] = dose 0.16 mg/kg, 11.2 mg for 70 kg
[17] = dose 0.21 mg/kg, 14.7 mg for 70 kg
[18] = dose 0.23 mg/kg, 16.1 mg for 70 kg
[19] = dose 0.29 mg/kg, 20.3 mg for 70 kg
[20] = dose 0.34 mg/kg, 23.8 mg for 70 kg
[21] = dose 0.57 mg/kg, 39.9 mg for 70 kg
[22] = dose 1 mg/kg, 70.0 mg for 70 kg
[23] = dose 1.14 mg/kg, 79.8 mg for 70 kg
[24] = dose 1.71 mg/kg, 119.7 mg for 70 kg
[25] = dose 2.13 mg/kg, 149.1 mg for 70 kg
[26] = dose 2.29 mg/kg, 160.3 mg for 70 kg

## CN1CC[C@]2(C)c3cc(OC(=O)Nc4ccccc4)ccc3N(C)C12 (stereo partly drawn) [butanetap, (3aR)-1,3a,8-trimethyl-1,2,3,3a,8,8a-hexahydropyrrolo[2,3-b]indol-5-yl phenylcarbamate]
[1]; dose 0.014 mg/kg
  Brain levels in mice: 0 ng/gram
[1]; dose 0.07 mg/kg
  Brain levels in mice: 0 ng/gram
[1]; dose 0.143 mg/kg
  Brain levels in mice: 0 ng/gram
[1]; dose 0.16 mg/kg
  Brain levels in mice: 0 ng/gram
[1]; dose 0.21 mg/kg
  Brain levels in mice: 0 ng/gram
[1]; dose 0.23 mg/kg
  Brain levels in mice: 0 ng/gram
[1]; dose 0.29 mg/kg
  Brain levels in mice: 0 ng/gram
[1]; dose 0.34 mg/kg
  Brain levels in mice: 0 ng/gram
[1]; dose 0.57 mg/kg
  Brain levels in mice: 0 ng/gram
[1]; dose 1 mg/kg
  Brain levels in mice: 16 ng/gram
[1]; dose 1.14 mg/kg
  Brain levels in mice: 16.8 ng/gram
[1]; dose 1.71 mg/kg
  Brain levels in mice: 0 ng/gram
[1]; dose 2.13 mg/kg
  Brain levels in mice: 31.2 ng/gram
[1]; dose 2.29 mg/kg
  Brain levels in mice: 0 ng/gram
[1]; dose 3 mg/kg
  Brain levels in mice: 48 ng/gram
[1]; dose 5 mg/kg
  Brain levels in mice: 80 ng/gram
[1]; dose 10 mg/kg
  Brain levels in mice: 160 ng/gram
[1]; dose 20 mg/kg
  Brain levels in mice: 400 ng/gram
[1]; dose 30 mg/kg
  Brain levels in mice: 800 ng/gram
[1]; dose 40 mg/kg
  Brain levels in mice: 1200 ng/gram
[1]; dose 50 mg/kg
  Brain levels in mice: 1680 ng/gram
[1]; dose 60 mg/kg
  Brain levels in mice: 2400 ng/gram
[1]; dose 80 mg/kg
  Brain levels in mice: 4800 ng/gram
[1]; dose 100 mg/kg
  Brain levels in mice: 8000 ng/gram
[2]; MCI subjects, 10 days of administration, FIG. 8
  aggregating proteins (APP/Aβ, tau/phospho-tau, alpha-synuclein) in CSF: normalized
[2]; human CSF of MCI subjects
  inflammation: lowered
[3]
  APP in relation to Actin standard: lowers APP in vitro in a dose-dependent manner
[4]
  Tau expression: reduces
αSYN
  αSYN in the brain: reduced
[5]
  microglia survival in the presence of gingipains: no impact
[6]
  gingipain-induced cell aggregation: blocks
[7]
  memory and learning: Restored
[8]
  translation of neurotoxic aggregating proteins: does not inhibit
[9]; doses up to 4×60 mg daily×10 days
  tolerability: well tolerated
[9]; plasma, all doses
  terminal half-life: 4.3 to 4.7 h
[10]
  colonic motility: Restored
[11]; [13]
  Brain levels in humans: 8 ng/gram
  Plasma levels in human: 1 ng/mL
  Plasma levels in humans: 3 nM
[11]; [14]
  Brain levels in humans: 16 ng/gram
  Plasma levels in human: 2 ng/mL
  Plasma levels in humans: 6 nM
[11]; [15]
  Brain levels in humans: 29.6 ng/gram
  Plasma levels in human: 3.7 ng/mL
  Plasma levels in humans: 10 nM
[11]; [16]
  Brain levels in humans: 45.6 ng/gram
  Plasma levels in human: 5.7 ng/mL
  Plasma levels in humans: 17 nM
[11]; [17]
  Brain levels in humans: 92 ng/gram
  Plasma levels in human: 11.5 ng/mL
  Plasma levels in humans: 32 nM
[11]; [18]
  Brain levels in humans: 103.2 ng/gram
  Plasma levels in human: 12.9 ng/mL
  Plasma levels in humans: 38 nM
[11]; [19]
  Brain levels in humans: 112 ng/gram
  Plasma levels in human: 14 ng/mL
  Plasma levels in humans: 41 nM
[11]; [20]
  Brain levels in humans: 160 ng/gram
  Plasma levels in human: 20 ng/mL
  Plasma levels in humans: 58 nM
[11]; [21]
  Brain levels in humans: 336 ng/gram
  Plasma levels in human: 42 ng/mL
  Plasma levels in humans: 123 nM
[11]; [22]
  Brain levels in humans: 720 ng/gram
  Plasma levels in human: 90 ng/mL
  Plasma levels in humans: 264 nM
[11]; [23]
  Brain levels in humans: 960 ng/gram
  Plasma levels in human: 120 ng/mL
  Plasma levels in humans: 352 nM
[11]; [24]
  Brain levels in humans: 1600 ng/gram
  Plasma levels in human: 200 ng/mL
[11]; [25]
  Brain levels in humans: 1920 ng/gram
  Plasma levels in human: 240 ng/mL
[11]; [26]
  Brain levels in humans: 3040 ng/gram
  Plasma levels in human: 380 ng/mL
[12]
  neurotoxic aggregating proteins: not inhibit
